The data set is classed as physicochemical. How it is done: Partitioning studies of leuprolide free base and the acetate, palmitate, and decanesulfonate salts were conducted in Type I glass culture tubes fitted with poly(tetrafluroethylene)-lined caps. Octanol-saturated water was used to prepare solutions of leuprolide free base and the leuprolide salts at concentrations of 500 μg/ml. Ten ml of each solution and 10 ml of water-saturated octanol were placed in the glass tubes which were then tightly capped and shaken for 24 hours at 30° C. At the end of this time, the tubes were centrifuged at 2000 rpm for ten minutes. The water and octanol layers were separated and each analyzed for the concentrations of leuprolide or leuprolide salt. The octanol-water distribution coefficients, Kd, was calculated from the ratio of concentration in the non-aqueous phase and the aqueous phase.

One molecule from patent US5446025A, “Formulations and method of the percutaneous administration of leuprolide” (Abbott Laboratories, priority 1992, dated 1995) can be followed below.

Take `CCNC(=O)[C@@H]1CCCN1C(=O)[C@H](CCCNC(=N)N)NC(=O)[C@H](CC(C)C)NC(=O)[C@@H](CC(C)C)NC(=O)[C@H](Cc1ccc(O)cc1)NC(=O)[C@H](CO)NC(=O)[C@H](Cc1c[nH]c2ccccc12)NC(=O)[C@H](Cc1c[nH]cn1)NC(=O)[C@@H]1CCC(=O)N1` [Leuprolide free base, leuprolide]: the “Lipophilicity relative to the acetate salt, as measured by the octanol/water distribution coefficient” value is “roughly six”.
